We go through 13 compounds from ChEMBL document CHEMBL1123110, “Bicyclic and tricyclic analogues of anthramycin” (1985).

Type in all cases: functional
The species entered for assay [1] is Mus musculus. Kind of assay: Optimal dose required for activity against P388 lymphocytic leukemia.
For assay [2], the system named is Mus musculus. Kind of assay: In vivo activity against P388 lymphocytic leukemia, and the maximum T/C values were reported. T/C >=125 is considered active.
For assay [3], the species on record is Mus musculus. Kind of assay: Optimal dose required for activity against P388 lymphocytic leukemia.

With `O=C1c2cccc(O)c2N=CCN1Cc1ccccc1`, the OD in the assay filed under Mus musculus [1] turned out to be 16 mg/kg. Also, in the assay with Mus musculus [2], the “Max T/C” value worked out at 100.
The like results for `CCOC(=O)CN1CC=Nc2c(O)cccc2C1=O` were, in that order, 40 mg/kg and 106.
Turning to `COc1cc2c(cc1OC(C)=O)N[C@H](OC)[C@@H]1CC(OC(C)=O)CN1C2=O` (stereo partly specified), in the assay filed under Mus musculus [3], the OD is 16 mg/kg. In the assay with Mus musculus [2], the “Max T/C” value was 100.
`O=C1NCC=Nc2c(O)cccc21`: the OD in the assay filed under Mus musculus [1] stood at 16 mg/kg. In the assay with Mus musculus [2], the “Max T/C” value is 125.
For the compound `COc1cc2c(cc1O)N[C@H](OC)[C@@H]1CC(O)CN1C2=O` (stereo partly specified), the OD in the assay filed under Mus musculus [1] was 6.4 mg/kg. In addition, in the assay with Mus musculus [2], the “Max T/C” value was found to be 144.
For the compound `C=CCN1CC=Nc2c(O)cccc2C1=O`, in the assay listed under Mus musculus [1], the OD is 80 mg/kg. Further, the “Max T/C” value in the assay with Mus musculus [2] came to 117.
The like results for `COc1cc2c(cc1O)N[C@@H](OC)[C@@H]1CC(O)CN1C2=O` (stereo partly specified) were, in that order, 16 mg/kg and 100.
The like results for `C/C=C/CN1CC=Nc2c(O)cccc2C1=O` were, in that order, 20 mg/kg and 138.
The like results for `O=C1c2ccccc2N=CC2CCCN12` (stereo unspecified) were, in that order, 8 mg/kg and 133.
`CN1CC=Nc2c(O)cccc2C1=O` yielded an OD in the assay filed under Mus musculus [1] of 16 mg/kg. Further, in the assay with Mus musculus [2], the “Max T/C” value came out at 122.
For `C/C=C1\C[C@H]2[C@@H](OC)Nc3cc(O)c(OC)cc3C(=O)N2C1` the same measures were 0.2 mg/kg and 188.
In the assay filed under Mus musculus [1], `COC(=O)/C=C1/C[C@H]2[C@@H](S(=O)(=O)[O-])Nc3cc(O)c(OC)cc3C(=O)N2C1.[Na+]` had an OD of 6 mg/kg. The “Max T/C” value in the assay with Mus musculus [2] came to 131.
For `C#CCN1CC=Nc2c(O)cccc2C1=O` the same measures were 16 mg/kg and 162.
